Results reported in US8637525B2, “Compounds for the reduction of beta-amyloid production” (Bristol-Myers Squibb Company, priority 2009, dated 2014).
Like-named read-outs stand apart in the source and are kept apart here.

Tested on: Aβ1-42 production
Assay: Cellular assay for inhibition of Aβ1-42 production (H4 APP751 SWE clone 8.20)
Type: cell-based
Details: H4 APP751 SWE clone 8.20 cells, 19 h incubation
Procedure, shortened: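 Cells incubate with compound for 19 h (37 °C, 5% CO2), the plate is briefly spun, and antibody mix is added straight to the wells: Wallac-conjugated 565 against the Aβ42 C-terminal neoepitope and APC-conjugated 26D6 against the Aβ N-terminus. After overnight sealing at 4 °C, signal is counted and IC50 fitted.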

[1] = class symbols, read-out: Activity Rating (Aβ42 cellular IC50)
[2] = 19 h, class symbols, read-out: Activity Rating (Aβ42 cellular IC50)
[3] = 19 h, read-out: Activity Rating (Aβ42 cellular IC50), numeric value

SMILES | IC50 [1] | further results
CNc1nc(Nc2ccc(-n3cnc(C)n3)c(OC)c2)nc2c1COCC2c1ccc(Cl)cc1 (single isomer, unassigned) [Example 71B, 8-(4-chlorophenyl)-N^2-(3-methoxy-4-(3-methyl-1H-1,2,4-triazol-1-yl)phenyl)-N^4-methyl-7,8-dihydro-5H-pyrano[4,3-d]pyrimidine-2,4-diamine] | 10 to 100 nM | 
COc1cc(Nc2nc3c(c(N4CCC[C@@H]4C)n2)COC3c2ccc(F)cc2)ccc1-n1cnc(Cl)c1 (single isomer, unassigned) [Example 74A] |  | IC50 [2]: 10 to 100 nM
CCNc1nc(Nc2ccc(-n3cnc(Cl)c3)c(OC)c2)nc2c1COC2c1ccc(F)cc1 (single isomer, unassigned) [Example 75A, N^2-(4-(4-chloro-1H-imidazol-1-yl)-3-methoxyphenyl)-N^4-ethyl-7-(4-fluorophenyl)-5,7-dihydrofuro[3,4-d]pyrimidine-2,4-diamine] | 1.5 to 9.9 nM | 
CCNc1nc(Nc2ccc(-n3cnc(Cl)c3)c(OC)c2)nc2c1COC2c1ccc(F)cc1 (single isomer, unassigned) [Example 75B, N^2-(4-(4-chloro-1H-imidazol-1-yl)-3-methoxyphenyl)-N^4-ethyl-7-(4-fluorophenyl)-5,7-dihydrofuro[3,4-d]pyrimidine-2,4-diamine] | 10 to 100 nM | 
COc1cc(Nc2nc3c(c(N4CC[C@H](F)C4)n2)COC3c2ccc(F)cc2)ccc1-n1cnc(Cl)c1 (single isomer, unassigned) [Example 76] |  | IC50 [2]: 10 to 100 nM
COc1cc(Nc2nc3c(c(N4CC[C@H](F)C4)n2)COC3c2ccc(F)cc2)ccc1-n1cnc(Cl)c1 (single isomer, unassigned) [Example 77] | 10 to 100 nM | 
CCNc1nc(Nc2ccc(-n3ncnc3C)c(F)c2)nc2c1COC2c1ccc(F)cc1 (single isomer, unassigned) [Example 78A, N^4-ethyl-N^2-(3-fluoro-4-(5-methyl-1H-1,2,4-triazol-1-yl)phenyl)-7-(4-fluorophenyl)-5,7-dihydrofuro[3,4-d]pyrimidine-2,4-diamine] |  | IC50 [3]: 19 nM
CCNc1nc(Nc2ccc(-n3ncnc3C)c(F)c2)nc2c1COC2c1ccc(F)cc1 (single isomer, unassigned) [Example 78B, N^4-ethyl-N^2-(3-fluoro-4-(5-methyl-1H-1,2,4-triazol-1-yl)phenyl)-7-(4-fluorophenyl)-5,7-dihydrofuro[3,4-d]pyrimidine-2,4-diamine] |  | IC50 [2]: 10 to 100 nM
CNc1nc(Nc2ccc(-n3cnc(Cl)c3)c(OC)c2)nc2c1COC2c1ccc(F)cc1 (single isomer, unassigned) [Example 79A, N^2-(4-(4-chloro-1H-imidazol-1-yl)-3-methoxyphenyl)-7-(4-fluorophenyl)-N^4-methyl-5,7-dihydrofuro[3,4-d]pyrimidine-2,4-diamine] |  | IC50 [3]: 5.8 nM
CNc1nc(Nc2ccc(-n3cnc(Cl)c3)c(OC)c2)nc2c1COC2c1ccc(F)cc1 (single isomer, unassigned) [Example 79B, N^2-(4-(4-chloro-1H-imidazol-1-yl)-3-methoxyphenyl)-7-(4-fluorophenyl)-N^4-methyl-5,7-dihydrofuro[3,4-d]pyrimidine-2,4-diamine] |  | IC50 [2]: 10 to 100 nM
COc1cc(Nc2nc3c(c(N4CC[C@@H](F)C4)n2)COC3c2ccc(F)cc2)ccc1-n1cnc(Cl)c1 (single isomer, unassigned) [Example 83A] | 1.5 to 9.9 nM | 
COc1cc(Nc2nc3c(c(N4CC[C@@H](F)C4)n2)COC3c2ccc(F)cc2)ccc1-n1cnc(Cl)c1 (single isomer, unassigned) [Example 83B] | 10 to 100 nM | 
CNc1nc(Nc2ccc(-n3cnc(Cl)c3)c(OC)c2)nc2c1CCC2c1ccc(Cl)cc1 (single isomer, unassigned) [Example 94A, N^2-(4-(4-chloro-1H-imidazol-1-yl)-3-methoxyphenyl)-7-(4-chlorophenyl)-N^4-methyl-6,7-dihydro-5H-cyclopenta[d]pyrimidine-2,4-diamine] | 1.5 to 9.9 nM | 
CNc1nc(Nc2ccc(-n3cnc(Cl)c3)c(OC)c2)nc2c1CCC2c1ccc(Cl)cc1 (single isomer, unassigned) [Example 94B, N^2-(4-(4-chloro-1H-imidazol-1-yl)-3-methoxyphenyl)-7-(4-chlorophenyl)-N^4-methyl-6,7-dihydro-5H-cyclopenta[d]pyrimidine-2,4-diamine] | 10 to 100 nM | 
COc1cc(Nc2nc3c(c(N(C)C)n2)CCC3c2ccc(F)c(F)c2)ccc1-n1cnc(Cl)c1 (single isomer, unassigned) [Example 95A, N^2-(4-(4-chloro-1H-imidazol-1-yl)-3-methoxyphenyl)-7-(3,4-difluorophenyl)-N^4,N^4-dimethyl-6,7-dihydro-5H-cyclopenta[d]pyrimidine-2,4-diamine] | 1.5 to 9.9 nM | 
COc1cc(Nc2nc3c(c(N(C)C)n2)CCC3c2ccc(F)c(F)c2)ccc1-n1cnc(Cl)c1 (single isomer, unassigned) [Example 95B, N^2-(4-(4-chloro-1H-imidazol-1-yl)-3-methoxyphenyl)-7-(3,4-difluorophenyl)-N^4,N^4-dimethyl-6,7-dihydro-5H-cyclopenta[d]pyrimidine-2,4-diamine] | 10 to 100 nM | 
CNc1nc(Nc2ccc(-n3cnc(Cl)c3)c(OC)c2)nc2c1CCC2c1ccc(F)c(F)c1 (single isomer, unassigned) [Example 96A, N^2-(4-(4-chloro-1H-imidazol-1-yl)-3-methoxyphenyl)-7-(3,4-difluorophenyl)-N^4-methyl-6,7-dihydro-5H-cyclopenta[d]pyrimidine-2,4-diamine] |  | IC50 [2]: 1.5 to 9.9 nM
CNc1nc(Nc2ccc(-n3cnc(Cl)c3)c(OC)c2)nc2c1CCC2c1ccc(F)c(F)c1 (single isomer, unassigned) [Example 96B, N^2-(4-(4-chloro-1H-imidazol-1-yl)-3-methoxyphenyl)-7-(3,4-difluorophenyl)-N^4-methyl-6,7-dihydro-5H-cyclopenta[d]pyrimidine-2,4-diamine] |  | IC50 [3]: 4.6 nM
CNc1nc(Nc2ccc(-n3cnc(Cl)c3)c(OC)c2)nc2c1CCC2c1ccc(OC(F)(F)F)cc1 (single isomer, unassigned) [Example 97A, N^2-(4-(4-chloro-1H-imidazol-1-yl)-3-methoxyphenyl)-N^4-methyl-7-(4-(trifluoromethoxy)phenyl)-6,7-dihydro-5H-cyclopenta[d]pyrimidine-2,4-diamine] | 1.5 to 9.9 nM | 
CNc1nc(Nc2ccc(-n3cnc(Cl)c3)c(OC)c2)nc2c1CCC2c1ccc(OC(F)(F)F)cc1 (single isomer, unassigned) [Example 97B, N^2-(4-(4-chloro-1H-imidazol-1-yl)-3-methoxyphenyl)-N^4-methyl-7-(4-(trifluoromethoxy)phenyl)-6,7-dihydro-5H-cyclopenta[d]pyrimidine-2,4-diamine] | 10 to 100 nM | 
CCNc1nc(Nc2ccc(-n3cnc(Cl)c3)c(OC)c2)nc2c1CCC2c1ccc(OC(F)(F)F)cc1 (single isomer, unassigned) [Example 98A, N^2-(4-(4-Chloro-1H-imidazol-1-yl)-3-methoxyphenyl)-N^4-ethyl-7-(4-(trifluoromethoxy)phenyl)-6,7-dihydro-5H-cyclopenta[d]pyrimidine-2,4-diamine] | 1.5 to 9.9 nM | 
CCNc1nc(Nc2ccc(-n3cnc(Cl)c3)c(OC)c2)nc2c1CCC2c1ccc(OC(F)(F)F)cc1 (single isomer, unassigned) [Example 98B, N^2-(4-(4-Chloro-1H-imidazol-1-yl)-3-methoxyphenyl)-N^4-ethyl-7-(4-(trifluoromethoxy)phenyl)-6,7-dihydro-5H-cyclopenta[d]pyrimidine-2,4-diamine] | 10 to 100 nM | 
COc1cc(Nc2nc3c(c(N4CC(F)(F)C4)n2)CCC3c2ccc(OC(F)(F)F)cc2)ccc1-n1cnc(Cl)c1 (single isomer, unassigned) [Example 99A, N-(4-(4-chloro-1H-imidazol-1-yl)-3-methoxyphenyl)-4-(3,3-difluoroazetidin-1-yl)-7-(4-(trifluoromethoxy)phenyl)-6,7-dihydro-5H-cyclopenta[d]pyrimidin-2-amine] |  | IC50 [2]: 10 to 100 nM
COc1cc(Nc2nc3c(c(N4CC(F)(F)C4)n2)CCC3c2ccc(OC(F)(F)F)cc2)ccc1-n1cnc(Cl)c1 (single isomer, unassigned) [Example 99B, N-(4-(4-chloro-1H-imidazol-1-yl)-3-methoxyphenyl)-4-(3,3-difluoroazetidin-1-yl)-7-(4-(trifluoromethoxy)phenyl)-6,7-dihydro-5H-cyclopenta[d]pyrimidin-2-amine] |  | IC50 [3]: 190 nM
COc1cc(Nc2nc3c(c(N(C)C)n2)CCC3c2ccc(OC(F)(F)F)cc2)ccc1-n1cnc(Cl)c1 (single isomer, unassigned) [Example 100A, N^2-(4-(4-chloro-1H-imidazol-1-yl)-3-methoxyphenyl)-N^4,N^4-dimethyl-7-(4-(trifluoromethoxy)phenyl)-6,7-dihydro-5H-cyclopenta[d]pyrimidine-2,4-diamine] |  | IC50 [3]: 4.7 nM
COc1cc(Nc2nc3c(c(N(C)C)n2)CCC3c2ccc(OC(F)(F)F)cc2)ccc1-n1cnc(Cl)c1 (single isomer, unassigned) [Example 100B, N^2-(4-(4-chloro-1H-imidazol-1-yl)-3-methoxyphenyl)-N^4,N^4-dimethyl-7-(4-(trifluoromethoxy)phenyl)-6,7-dihydro-5H-cyclopenta[d]pyrimidine-2,4-diamine] |  | IC50 [2]: 10 to 100 nM
COc1cc(Nc2nc3c(c(N4CCC4)n2)CCC3c2ccc(OC(F)(F)F)cc2)ccc1-n1cnc(Cl)c1 (single isomer, unassigned) [Example 101A, 4-(azetidin-1-yl)-N-(4-(4-chloro-1H-imidazol-1-yl)-3-methoxyphenyl)-7-(4-(trifluoromethoxy)phenyl)-6,7-dihydro-5H-cyclopenta[d]pyrimidin-2-amine] | 1.5 to 9.9 nM | 
